{
  "source": "patent US5637619A",
  "about": "“Antitumor 2-aminocarbonyl-1, 2-bis(methylsulfonyl)-1-(substituted)hydrazines” (Yale University, priority 1995, dated 1997)",
  "key": {"L1210 leukemia": {"test_system": "L1210 leukemia", "test": "L1210 leukemia survival time in mice (ip implanted)", "type": "in vivo, mice (CD2F1)", "details": "for %T/C (average survival time treated/control × 100): cures not included", "protocol": "Leukemia L1210 cells were obtained from the Frederick Cancer Research Facility, Division of Cancer Treatment Tumor Repository of the National Cancer Institute, and were maintained by serial passage in tissue culture. Every 8 weeks, tumor cells were injected intraperitoneally into five donor CD2 F1 mice 8- to 10- weeks of age and were allowed to grow for 7 days. The peritoneal fluid was withdrawn and the suspension was centrifuged for 5 min at 1600 g. The supernatant was decanted and 10^5 cells/mL were seeded into 10 mL of RPMI 1640 medium supplemented with 10% fetal bovine serum and 1% L-glutamine, and once again maintained in culture. To assay for antineoplastic activity, 0.1 mL of the cell suspension containing 10^5 L1210 leukemia cells was injected ip into each recipient mouse. Test compounds were administered over a wide range of dosage levels, beginning 24 h after tumor implantation, and continued once daily for 6 consecutive days. All drugs were administered ip as a solution in 100% dimethylsulfoxide (DMSO), in a volume not exceeding 0.025 mL. […] Mice were weighed during the course of the experiments, and the percentage change in body weight from onset to termination of therapy was used as an indication of drug toxicity. Determination of the sensitivity of neoplasms to these agents was based upon the prolongation of survival time afforded by the drug treatments.\n^a Administered ip once daily for six consecutive days, beginning 24 hours after tumor implantation, with 5-10 mice being used per group. ^b Average percent change in body weight from onset to termination of therapy. ^c % T/C=average survival time of treated/control mice×100; cures (>60-day survivors) are listed separately and are not included in this calculation."}, "M109 lung carcinoma": {"test_system": "M109 lung carcinoma", "test": "M109 lung carcinoma, sc implanted", "type": "in vivo, BALB/c mice", "protocol": "(§1) The M5076 reticulum cell sarcoma was passaged biweekly by sc transfer of tumor fragments into C57BL/6 mice, and the M109 lung carcinoma was similarly passaged in BALB/c mice. The LX-1 human lung carcinoma was passaged sc every two to three weeks in BALB/c-background athymic (nu/nu) mice. For use in these systems, compound III was dissolved in: (a) 100% DMSO and administered by iv injection in a fixed volume of 10 microliters; or (b) DMSO diluted with saline to a final concentration of 10% DMSO and administered iv in a volume of 0.01 milliliter/g of body weight. […] Mitomycin C and cyclophosphamide were dissolved and administered in saline. BCNU and MeCCNU were dissolved in ethanol and diluted 1:9 (v/v) with water prior to administration.\n(§2) Five mice per group were employed in experiments with the B16F10 melanoma, and 8 mice per group with the M5076 sarcoma, the M109 carcinoma and the LX-1 carcinoma. A minimum of two dose levels per compound were included in each evaluation and drug therapy was initiated 24 h after tumor implantation for the M5076 sarcoma and M109 carcinoma. In the LX-1 experiment, tumor bearing mice were selected and sorted into treatment and control groups on day 6 post-tumor implant such that all tumor weights ranged from 50-100 mg and median tumor weights per group were reasonably similar. Therapeutic results are presented in terms of: (a) increases in lifespan reflected by the relative median survival time (MST) of treated versus control groups (i.e., %T/C values), and by long-term survivors, and (b) primary tumor growth inhibition (i.e., T-C values) determined by calculating the relative median times for treated (T) and control untreated (C) mice to grow tumors of a 0.5 g size for the LX-1 carcinoma or a 1 g size for the murine neoplasms. Tumor weights were interchangeable with tumor size on the basis of 1 mm^3 =1 mg. […] The activity criterion for tumor inhibition was a delay in tumor growth consistent with one log10 cell kill (LCK). The absolute T-C value needed to attain this level of efficacy varied from experiment to experiment and depended upon the tumor volume doubling time of the control mice in each study. Treated mice dying prior to day 10 in the ip M109 experiment, or dying before their tumors achieved 0.5 g for the LX-1 carcinoma or 1 g in size for all other sc tumor models, were considered to have died from drug toxicity. Groups of mice with more than one death due to drug toxicity were not used in the evaluation of antitumor efficacy. Statistical evaluations of data were performed using Gehan's generalized Wilcoxan test (Gehan, Biometrika, 1965, 52, 203-233).\nCompound III was also evaluated against the M109 lung carcinoma implanted subcutaneously (sc). In the initial test using this model, a dose of 50 mg/kg per injection of this compound was administered intravenously (iv) in 10% DMSO in saline every fourth day for a total of three injections. […] Mitomycin C, used as a reference drug, produced a maximum %T/C of 103 and a delay in tumor growth of 10 days (data not shown). A subsequent evaluation of compound III was performed using four different doses on a slightly different schedule, i.e., 24, 32, 48 and 64 mg/kg administered every third day for four total injections, and two vehicles, 10% DMSO in saline and 100% DMSO. […] Cyclophosphamide and mitomycin C were included as reference drugs in the last experiment. The former compound produced a maximum %T/C of 143 and a delay in tumor growth of 8.8 days, while mitomycin C produced a maximum %T/C of 134 and a T-C value of 9.3 days (data not shown). As reported earlier, compound X achieved a maximum %T/C of 136 and a maximum T-C value of 14.5 days against this tumor (Shyam, et al., J. Med. Chem., 1993, 36, 3496)."}, "[1]": {"test_system": "LX-1 human lung carcinoma", "test": "LX-1 human lung carcinoma xenograft, sc in athymic mice", "type": "in vivo, human tumor in athymic (nu/nu) mice", "details": "40 mg/kg/injection, q2d × 5 from day 6, iv, 100% DMSO", "protocol": "as §1, §2\nThe human lung tumor, LX-1, xenografted sc in athymic mice, was also used to examine the antineoplastic potential of compound III. […]"}, "[2]": {"details": "experiment a, 50 mg/kg/injection, q4d × 3, iv, 10% DMSO in saline"}, "[3]": {"details": "experiment b, 64 mg/kg/injection, q3d × 4, iv, 100% DMSO"}},
  "note": "“Also recorded” adds a separate entry of the source.",
  "data": [
    {"smiles": "CS(=O)(=O)N(CCCl)N(C(=O)NCCCl)S(C)(=O)=O", "note": "[Compound III, 1,2-bis(methylsulfonyl)-1-(2-chloroethyl)-2-(2-chloroethyl)aminocarbonylhydrazine]", "values": [
      {"measurement": "% 60 Day Survivors (cures)", "setting": "L1210 leukemia; 10 mg/kg ip once daily × 6", "result": 100, "unit": "%"},
      {"measurement": "% 60 Day Survivors (cures)", "setting": "L1210 leukemia; 15 mg/kg ip once daily × 6", "result": 80, "unit": "%"},
      {"measurement": "%T/C (average survival time treated/control × 100)", "setting": "L1210 leukemia; 15 mg/kg ip once daily × 6", "result": 216, "unit": "%"},
      {"measurement": "% 60 Day Survivors (cures)", "setting": "L1210 leukemia; 20 mg/kg ip once daily × 6", "result": 80, "unit": "%"},
      {"measurement": "%T/C (average survival time treated/control × 100)", "setting": "L1210 leukemia; 20 mg/kg ip once daily × 6", "result": 239, "unit": "%"},
      {"measurement": "antileukemic activity / therapeutic potential (in words)", "setting": "L1210 leukemia; qualitative, L1210 leukemia in mice", "result": "One of the most active and potent compounds in the series; also recorded: much better therapeutic potential than the amino acid ester derivatives"},
      {"measurement": "lethality (in words)", "setting": "M109 lung carcinoma; 48 mg/kg per injection, q3d × 4, iv, 10% DMSO in saline", "result": "excessively lethal"},
      {"measurement": "antitumor effect versus 10% DMSO formulation, statistics (in words)", "setting": "M109 lung carcinoma; 64 mg/kg in 100% DMSO vs best T-C in 10% DMSO in saline, p<0.01", "result": "statistically superior (p<0.01)"},
      {"measurement": "treatment-associated lethalities (in words)", "setting": "M109 lung carcinoma; 64 mg/kg per injection, q3d × 4, iv, 100% DMSO", "result": "without causing any treatment-associated lethalities"},
      {"measurement": "%T/C (median survival time)", "setting": "M109 lung carcinoma; [2]", "result": 115, "unit": "%"},
      {"measurement": "T-C, delay in tumor growth", "setting": "M109 lung carcinoma; [2]", "result": 8.3, "unit": "days"},
      {"measurement": "activity assessment of %T/C (in words)", "setting": "M109 lung carcinoma; experiment a, 50 mg/kg/injection, q4d × 3, iv, criterion T/C ≥125%", "result": "not considered to be an active result"},
      {"measurement": "%T/C (median survival time), maximum", "setting": "M109 lung carcinoma; experiment b, 24 mg/kg/injection, q3d × 4, iv, 10% DMSO in saline", "result": 143, "unit": "%"},
      {"measurement": "T-C, maximum delay in tumor growth", "setting": "M109 lung carcinoma; experiment b, 32 mg/kg/injection, q3d × 4, iv, 10% DMSO in saline", "result": 9.3, "unit": "days"},
      {"measurement": "%T/C (median survival time), maximum", "setting": "M109 lung carcinoma; [3]", "result": 145, "unit": "%"},
      {"measurement": "T-C, delay in tumor growth", "setting": "M109 lung carcinoma; [3]", "result": 17.8, "unit": "days"},
      {"measurement": "T-C, median delay in tumor growth to 0.5 g", "setting": "[1]", "result": 14.5, "unit": "days"},
      {"measurement": "log10 cell kill (LCK)", "setting": "[1]", "result": 1.6, "unit": "LCK"}
    ]}
  ]
}
